One assay relates to AMPK. As to the kind of experiment: AMPK activation potential in primary hepatocytes (western blot). As to conditions: 8 h, PA 20 μM, glucagon 2 μM. The assay is classed as cell-based, C57BL/6 mice. The method, then: To evaluate the AMPK activation potential of PA we performed in vitro analysis. We used primary hepatocytes, derived from C57BL/6 mice (Cell Biologics; Cat. C57-6224F). Hepatocytes were kept in M199 (Corning), supplemented with FBS (fetal bovine serum 10%) and glutagro (1% Corning). Hepatocytes were then serum starved, overnight, and prior to procedure in RPMI 1640 (United States Biological Life Sciences, R8999). 8 h prior to harvest, cells were treated with glucagon (2 μM), or test sample (20 μM). Cells were rinsed with ice cold PBS, twice, after harvest and were placed on ice until the extraction of protein was carried out. Assay was conducted in triplicate with three plates for each treatment. Protein from cells was hauled out; quantified and western blot was performed to assess the activation of AMPK after treatment with PA and compared it with untreated control and the cells treated with glucagon.
Extraction of proteins and western blot analysis was carried out, as we already reported ([Akhtar et al., 2016]). Briefly, lysis buffer was added to the harvested cells. […] Concentration of protein in each lysate was measured using Pierce BCA protein assay kit (Thermo Scientific), as per manufacturer’s protocol. […]

For a further assay, the target named is α-glucosidase (Saccharomyces cerevisiae, UniProt P53341). In words: α-Glucosidase inhibition assay (pNPG substrate, 405 nm). The class given is biochemical. The settings on record: Table 1, unit inferred.
In a further assay the target is DPP-4 (Homo sapiens, UniProt P27487). In words: DPP-4 inhibition assay (fluorometric, Gly-Pro-AMC). As to conditions: pure compound and positive control. The assay is classed as biochemical. The method, then: DPP-4 inhibition activity was assessed by using fluorometric technique, following the method documented by [Saleem et al., 2014]. This method calculates the quantity of free AMC (7-amino-4-methyl-coumarin). The AMC is released from the Gly-Pro-AMC which is the substrate of DPP-4. Experiment was performed in triplicate. Fluorescence was measured at Em 430 nm following excitation at Ex351 nm using a Tecan safire desktop fluorometer (Reading, England, United Kingdom). 50 mM HEPES buffer was used for preparation of each sample, whose pH was 7.4. To each well we added DPP-4 (20 μl 1 U/ml), test sample (20 μl) and […]. Plates were placed at 37°C for 1 h and then 3 mM acetic acid (100 μl) was pipetted to stop the reaction. We used Berberine (13 mM), as a control for each experiment, as already reported ([Al-Masri et al., 2009]). IC50 for inhibition of DPP-4 was calculated for each sample.

This note sets out measurements from PMC6277780, “A Multi-Mode Bioactive Agent Isolated From Ficus microcarpa L. Fill. With Therapeutic Potential for Type 2 Diabetes Mellitus” (Frontiers in Pharmacology, 2018).

Sequence of DPP-4 (P27487 whole entry, species assumed): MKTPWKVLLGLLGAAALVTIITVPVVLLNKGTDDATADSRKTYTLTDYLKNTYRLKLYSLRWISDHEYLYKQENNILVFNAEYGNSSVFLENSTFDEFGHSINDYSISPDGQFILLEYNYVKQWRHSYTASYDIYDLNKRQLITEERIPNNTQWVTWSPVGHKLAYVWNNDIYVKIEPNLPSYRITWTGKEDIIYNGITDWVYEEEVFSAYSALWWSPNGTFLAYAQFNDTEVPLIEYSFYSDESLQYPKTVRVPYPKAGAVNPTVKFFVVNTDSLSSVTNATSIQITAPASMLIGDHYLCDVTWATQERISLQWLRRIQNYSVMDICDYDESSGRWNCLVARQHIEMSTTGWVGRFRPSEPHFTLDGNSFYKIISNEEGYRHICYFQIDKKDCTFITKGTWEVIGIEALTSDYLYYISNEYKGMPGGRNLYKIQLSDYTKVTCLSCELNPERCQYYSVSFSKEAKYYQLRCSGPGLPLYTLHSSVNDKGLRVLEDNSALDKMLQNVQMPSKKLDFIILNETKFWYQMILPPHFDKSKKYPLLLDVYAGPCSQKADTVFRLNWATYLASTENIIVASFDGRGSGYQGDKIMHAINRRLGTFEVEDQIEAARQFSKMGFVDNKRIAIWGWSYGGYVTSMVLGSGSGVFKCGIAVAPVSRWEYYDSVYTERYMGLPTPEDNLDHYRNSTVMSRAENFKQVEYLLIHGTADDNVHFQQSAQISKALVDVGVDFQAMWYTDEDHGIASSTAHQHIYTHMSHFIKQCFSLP
Sequence of α-glucosidase (P53341 whole entry): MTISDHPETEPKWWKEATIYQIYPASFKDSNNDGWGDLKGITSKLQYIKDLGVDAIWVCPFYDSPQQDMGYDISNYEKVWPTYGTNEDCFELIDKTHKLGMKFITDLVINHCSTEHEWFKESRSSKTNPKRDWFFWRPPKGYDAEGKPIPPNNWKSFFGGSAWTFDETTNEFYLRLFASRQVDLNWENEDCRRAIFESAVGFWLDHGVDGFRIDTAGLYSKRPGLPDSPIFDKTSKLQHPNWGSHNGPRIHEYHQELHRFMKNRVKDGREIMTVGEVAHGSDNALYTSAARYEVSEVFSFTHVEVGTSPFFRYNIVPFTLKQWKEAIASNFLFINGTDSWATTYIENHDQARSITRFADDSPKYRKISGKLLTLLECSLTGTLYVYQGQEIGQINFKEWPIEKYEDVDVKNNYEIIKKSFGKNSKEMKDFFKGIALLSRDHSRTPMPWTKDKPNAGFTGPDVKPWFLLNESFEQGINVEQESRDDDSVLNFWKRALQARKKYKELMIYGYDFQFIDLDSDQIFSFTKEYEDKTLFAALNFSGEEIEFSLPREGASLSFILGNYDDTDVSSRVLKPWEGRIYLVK
Protocol for α-glucosidase: α-Glucosidase inhibition activity of the fractions and pure compounds (both PA and FL) was determined using the method of [Li et al. (2005)], while few modifications were made, according to system suitability. […] The decrease in absorption spectrum of reaction mixture indicated the inhibition of α-glucosidase activity of the sample under test. Assays were conducted in triplicate in 96-well microtitre plates. […] Percentage of inhibition was calculate by using following formula.
(1) Inhibitory activity=(OD control−OD test sample)/OD control×100
IC50 was calculated by using table curve ASIN software (2D v4) through linear regression analysis.

For the compound glucagon [reference compound], in the assay with AMPK, the “AMPK activation (phosphorylation of AMPK at Thr172)” value is listed as “no AMPK activation” and the “phosphorylation of ACC to p-ACC at S79” value is “not observed”. 3,4,5,7-Flavantetrol showed an IC50 against α-glucosidase of 200 µM. In turn, `COc1ccc2cc3[n+](cc2c1OC)CCc1cc2c(cc1-3)OCO2` [Berberine, reference compound] came in with a half-inhibitory concentration (IC50) at DPP-4 of 27.4 ± 2.2 µM.

By IC50 is commonly meant the point on the concentration scale where inhibition reaches its midpoint. Lower therefore signals inhibition by little substance.
